From US20250108048A1, “STING AGONIST COMPOUNDS AND CONJUGATES” (SUTRO BIOPHARMA, INC., priority 2023, published 2025) come the findings set out here.

Test [1] concerns the target T1, mSTING (Mus musculus, UniProt Q3TBT3).
T1 sequence (Q3TBT3 1-378): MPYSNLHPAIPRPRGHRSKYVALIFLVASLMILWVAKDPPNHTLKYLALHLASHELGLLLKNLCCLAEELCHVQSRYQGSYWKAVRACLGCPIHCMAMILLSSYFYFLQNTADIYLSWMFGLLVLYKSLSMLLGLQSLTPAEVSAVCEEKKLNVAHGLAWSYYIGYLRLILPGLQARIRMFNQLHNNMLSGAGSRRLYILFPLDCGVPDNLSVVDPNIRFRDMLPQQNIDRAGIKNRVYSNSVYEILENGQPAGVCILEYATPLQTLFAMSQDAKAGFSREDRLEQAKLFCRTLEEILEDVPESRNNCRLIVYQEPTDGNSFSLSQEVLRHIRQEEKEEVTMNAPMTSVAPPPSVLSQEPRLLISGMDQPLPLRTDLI
Put plainly: THP1-Dual KI-mSTING reporter assay. To be noted: THP1-Dual KI-mSTING cells, 24 hours; read-out: Reporter assay EC50 (nM) THP-1 mSTING. Set-up: host or cells: THP1-Dual KI-mSTING (from THP1-Dual KO-STING). The test is classed as cell-based. (A reporter such as luciferase makes a cellular process visible.)

The test system of test [2] is TROP2 positive NCI-H292 Cells. Description: Cytokine release from cancer cells (MSD). To be noted: 120 hours; for EC50: Homo sapiens. The test is classed as cell-based, human. The protocol:
The cell supernatant was collected and IP-10 and IL-6 released in the cell culture medium was measured using Streptavidin single spot 96 well plates, compatible human antibody pairs, and calibrating solutions commercially available from MesoScale Discovery. Raw data generated by the Meso Scale Discovery (MSD®) SQ120 plate reader was imported into MSD Discovery Workbench software. Unknown sample values were interpolated from standard curves by the software and imported into Graphpad Prism. Each cytokine level was fitted with non-linear regression analysis, using log (agonist) vs. response, variable slope, 4-parameter fit equation in GraphPad Prism.

Test [3] deals with T2, hSTING-R232 (Homo sapiens, UniProt Q86WV6, H232R).
T2 construct: host or cells: THP1-Dual KI-hSTING-R232 (from THP1-Dual KO-STING)
T2 sequence (Q86WV6 whole entry H232R): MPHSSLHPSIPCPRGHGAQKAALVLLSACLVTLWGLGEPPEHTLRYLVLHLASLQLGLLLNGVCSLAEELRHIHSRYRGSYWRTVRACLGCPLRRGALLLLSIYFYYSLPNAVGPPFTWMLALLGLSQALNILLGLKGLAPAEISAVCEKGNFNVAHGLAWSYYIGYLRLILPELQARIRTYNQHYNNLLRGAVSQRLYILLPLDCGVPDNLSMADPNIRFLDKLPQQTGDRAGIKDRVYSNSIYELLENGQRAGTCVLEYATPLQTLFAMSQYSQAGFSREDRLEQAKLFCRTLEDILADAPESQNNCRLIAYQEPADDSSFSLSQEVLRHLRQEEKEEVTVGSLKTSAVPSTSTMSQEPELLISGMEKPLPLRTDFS
Put plainly: THP1-Dual KI-hSTING-R232 reporter assay (IRF pathway, secreted Lucia luciferase). Type of test: cell-based. To be noted: THP1-Dual KI-hSTING-R232 cells, 24 hours; read-out: Reporter assay EC50 (nM) THP-1-R232.

Like-named read-outs stand apart in the source and are kept apart here.

Consider `CCn1nc(C)cc1C(=O)Nc1nc2cc(C(N)=O)cc(OC)c2n1C/C=C/Cn1c(NC(=O)c2cc(C)nn2CC)nc2cc(C(N)=O)cc(OCCCN3CCC(c4nnc5n4CCNC5)CC3)c21` [Compound 4, 1-[(E)-4-[5-carbamoyl-2-[(2-ethyl-5-methyl-pyrazole-3-carbonyl)amino]-7-[3-[4-(5,6,7,8-tetrahydro-[1,2,4]triazolo[4,3-a]pyrazin-3-yl)-1-piperidyl]propoxy]benzimidazol-1-yl]but-2-enyl]-2-[(2-ethyl-5-methyl-pyrazole-3-carbonyl)amino]-7-methoxy-benzimidazole-5-carboxamide; 2,2,2-trifluoroacetic acid], for which the EC50 was above 150 nM in test [1], above 100 nM in test [2] (read-out: IL-6 Release EC50), above 100 nM in test [2] (read-out: IP-10 Release EC50) and 50 to 150 nM in test [3]. For the same compound, the “IL-6 Release Span” value in test [2] is above 8000 pg/mL. For the same compound, the “IP-10 Release Span” value in test [2] is above 4000 pg/mL.

As usually defined, the EC50 is the concentration at which the effect is half-maximal.
